Source: PubChem BioAssay AID602166 (The Scripps Research Institute Molecular Screening Center, 2012)
Activity calls are given as the source filed them. The rule behind the calls is not given here.

What follows are compounds tested against Nuclear receptor coactivator 3 (Homo sapiens) (UniProt Q9Y6Q9) (assay: SRC3 coactivator transcriptional activity inhibitors, dose response, cell-based, luminescence (AID 602166;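 note: potency for reduction of SRC3 reporter signal so compounds are inhibitors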)). Details: SRC3 luciferase reporter cell assay.
Chain of Nuclear receptor coactivator 3 (Homo sapiens) (Q9Y6Q9 whole entry, looked up): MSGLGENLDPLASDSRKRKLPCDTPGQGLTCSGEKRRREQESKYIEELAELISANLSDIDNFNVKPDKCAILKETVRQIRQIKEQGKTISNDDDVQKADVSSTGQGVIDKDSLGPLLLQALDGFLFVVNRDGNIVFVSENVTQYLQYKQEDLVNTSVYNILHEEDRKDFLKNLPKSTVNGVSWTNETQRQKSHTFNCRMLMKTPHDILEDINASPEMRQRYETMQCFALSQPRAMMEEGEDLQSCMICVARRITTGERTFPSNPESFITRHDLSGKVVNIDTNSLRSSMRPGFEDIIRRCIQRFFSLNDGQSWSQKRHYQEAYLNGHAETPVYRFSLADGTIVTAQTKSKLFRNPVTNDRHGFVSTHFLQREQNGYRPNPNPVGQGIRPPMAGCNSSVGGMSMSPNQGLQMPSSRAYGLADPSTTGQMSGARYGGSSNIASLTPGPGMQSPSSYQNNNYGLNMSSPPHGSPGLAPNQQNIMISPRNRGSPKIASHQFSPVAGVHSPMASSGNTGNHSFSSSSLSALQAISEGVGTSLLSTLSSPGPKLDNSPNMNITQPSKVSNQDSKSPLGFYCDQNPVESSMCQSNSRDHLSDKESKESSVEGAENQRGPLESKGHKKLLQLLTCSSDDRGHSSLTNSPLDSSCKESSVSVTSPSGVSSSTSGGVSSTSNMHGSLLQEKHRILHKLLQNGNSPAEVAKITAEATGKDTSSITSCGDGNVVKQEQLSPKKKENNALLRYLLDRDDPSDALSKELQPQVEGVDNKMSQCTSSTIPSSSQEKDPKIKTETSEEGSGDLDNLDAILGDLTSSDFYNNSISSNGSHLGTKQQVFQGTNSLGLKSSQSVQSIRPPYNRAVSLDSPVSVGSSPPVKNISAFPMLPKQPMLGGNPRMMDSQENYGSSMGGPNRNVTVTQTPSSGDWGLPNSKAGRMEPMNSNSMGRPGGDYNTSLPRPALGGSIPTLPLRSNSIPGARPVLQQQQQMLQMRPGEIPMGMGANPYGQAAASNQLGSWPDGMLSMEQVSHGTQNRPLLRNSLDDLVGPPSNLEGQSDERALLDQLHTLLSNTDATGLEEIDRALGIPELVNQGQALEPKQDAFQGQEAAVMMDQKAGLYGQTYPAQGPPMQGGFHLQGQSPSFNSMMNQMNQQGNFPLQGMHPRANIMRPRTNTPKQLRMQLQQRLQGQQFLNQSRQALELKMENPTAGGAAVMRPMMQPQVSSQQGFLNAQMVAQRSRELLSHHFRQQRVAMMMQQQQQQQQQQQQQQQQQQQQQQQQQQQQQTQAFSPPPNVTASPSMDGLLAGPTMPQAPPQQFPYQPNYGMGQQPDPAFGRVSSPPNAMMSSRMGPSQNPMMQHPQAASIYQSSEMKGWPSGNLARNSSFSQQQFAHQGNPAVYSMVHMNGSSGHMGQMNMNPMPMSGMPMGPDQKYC

**Q.** For C[C@@H](C(=O)Nc1ccc2c(c1)OCCO2)n1c(=O)[nH]c2ccccc2c1=O, which IC50 is on record?
**A.** > 35.9 µM (inactive)

**Q.** Cc1ccc(-n2c(C)cc(C(=O)COc3cccnc3[N+](=O)[O-])c2C)cc1 was tested. Which IC50 did it give?
**A.** > 35.9 µM (inactive)

**Q.** Which IC50 does the source give for Cc1cc2nccc(-c3ccncc3)n2n1 here?
**A.** inactive

**Q.** O=C(OCc1ccccc1)c1ccc(NCc2cc(O)ccc2O)cc1 was tested. Which IC50 did it give?
**A.** inactive

**Q.** For O=C(Nc1nc2ccccc2s1)C1c2ccccc2Oc2ccccc21, which IC50 is on record?
**A.** 7.97 µM

**Q.** For COC(=O)c1c(C)n(-c2ccc(OC)cc2)c2ccc(O)cc12, which IC50 is on record?
**A.** 3.99 µM

**Q.** With CCC(=O)N1CCN(c2ccnc3cc(Cl)ccc23)CC1 as the compound, how does the IC50 read?
**A.** 8.04 µM

**Q.** With CCCCN1C=CC(=C2C(=O)c3ccccc3C2=O)C=C1 as the compound, how does the IC50 read?
**A.** 4.47 µM

**Q.** Which IC50 does the source give for CC(=O)/C(N=Nc1ccc2c(c1)OCCO2)=C(\C)O here?
**A.** > 35.9 µM (inactive)

**Q.** With O=C(Nc1ccc(OCC(=O)N2CCOCC2)cc1)c1cncc(Br)c1 as the compound, how does the IC50 read?
**A.** 4.43 µM

**Q.** How did the IC50 turn out when CN1C(=O)C2(C(C#N)=C(N)N(c3cc(Cl)cc(Cl)c3)C3=C2C(=O)CC(C)(C)C3)c2ccccc21 (stereo unspecified) was run?
**A.** 4.34 µM

**Q.** How did the IC50 turn out when Cc1ccc(N=Nc2ccc3ccccc3c2O)cc1 was run?
**A.** > 35.9 µM (inactive)

**Q.** For C=CCn1c(C)cc(C(=O)COc2ccc(C)nc2[N+](=O)[O-])c1C, which IC50 is on record?
**A.** > 35.9 µM (inactive)

**Q.** How did the IC50 turn out when Clc1ccc(-c2csc3ncnc(NCCN4CCOCC4)c23)cc1 was run?
**A.** 8.15 µM

**Q.** Cc1ccc2nc(C(F)(F)F)c(C#N)c(N)c2c1 was tested. Which IC50 did it give?
**A.** inactive

**Q.** How did the IC50 turn out when Cc1nc(N2CCC(C(N)=O)CC2)c2c(-c3cccs3)csc2n1 was run?
**A.** 6.94 µM

**Q.** Which IC50 does the source give for COc1ccc(C)cc1NS(=O)(=O)c1ccc(NC(=O)CN(c2cc([N+](=O)[O-])ccc2C)S(C)(=O)=O)cc1 here?
**A.** inactive

**Q.** How did the IC50 turn out when CCOc1ccccc1-n1c(SCC(=O)Nc2ccccc2C(=O)O)nc2ccccc2c1=O was run?
**A.** > 35.9 µM (inactive)

**Q.** How did the IC50 turn out when Nc1nc(=S)c2ncn([C@@H]3O[C@H](CO)[C@@H](O)[C@H]3O)c2[nH]1 was run?
**A.** 2.55 µM

**Q.** Which IC50 does the source give for COc1ccc(C(C(=O)NC2CCCCC2)N(C(=O)CCl)c2ccc(OC)cc2)cc1 (stereo unspecified) here?
**A.** 7.79 µM

**Q.** For C=CS(=O)(=O)N(Cc1ccc(Cl)c(Cl)c1)C[C@@H](O)CO, which IC50 is on record?
**A.** 6.97 µM

**Q.** With O=C(NCc1ccccc1)c1c(Cl)nc(Cl)c(Cl)c1Cl as the compound, how does the IC50 read?
**A.** inactive

**Q.** With O=C(Nc1ccccc1Oc1ccccc1)c1cc([N+](=O)[O-])ccc1Cl as the compound, how does the IC50 read?
**A.** 5.45 µM

**Q.** How did the IC50 turn out when Cc1nc(N)nc(N)c1-c1ccc(Cl)c(Cl)c1 was run?
**A.** 1.37 µM

**Q.** For COc1ccc(C(C(=O)NC2CCCCC2)N(C(=O)CCl)c2ccc(Cl)cc2)cc1 (stereo unspecified), which IC50 is on record?
**A.** 3.7 µM

**Q.** For CC(=O)c1cccc(NC(=O)Nc2ccc3c(c2)N(C)C(=O)CS3)c1, which IC50 is on record?
**A.** > 12 µM (inactive)

**Q.** With O=c1[nH]c2ccccc2n1C1CCN(C(c2ccccc2)c2nnnn2Cc2ccccc2)CC1 (stereo unspecified) as the compound, how does the IC50 read?
**A.** inactive

**Q.** With O=C(COC(=O)c1ccc[nH]c1=O)Nc1ccc(N2CCCCC2)cc1 as the compound, how does the IC50 read?
**A.** 2.9 µM

**Q.** Which IC50 does the source give for Cc1c(CC(=O)NCCCC(=O)O)c(=O)oc2cc3c(cc12)CCC(C)(C)O3 here?
**A.** 7.52 µM

**Q.** How did the IC50 turn out when Cc1ccc(/C=C2\SC(=S)N(CCCC(=O)NC3CCCC3)C2=O)cc1 was run?
**A.** 1.76 µM

**Q.** Which IC50 does the source give for C=CCn1c(O)c(C(C)=NCc2cc(OC)cc(OC)c2)c(=O)[nH]c1=O here?
**A.** 7.73 µM

**Q.** c1ccc(-c2noc(-c3ccc4ccccc4c3)n2)nc1 was tested. Which IC50 did it give?
**A.** 8.62 µM

**Q.** COc1cc(/C=C2\CC(C(C)(C)C)C/C(=C\c3cc(OC)c(OC)c(OC)c3)C2=O)cc(OC)c1OC (stereo unspecified) was tested. Which IC50 did it give?
**A.** > 35.9 µM (inactive)

**Q.** With CCOc1ccc(/C=C2\SC(=S)N(CCC(=O)O)C2=O)cc1 as the compound, how does the IC50 read?
**A.** > 35.9 µM (inactive)

**Q.** How did the IC50 turn out when O=c1[nH]c2ccccc2n1C1CCN(C(c2ccccc2)c2nnnn2-c2ccc3c(c2)OCCO3)CC1 (stereo unspecified) was run?
**A.** inactive

**Q.** For Cc1cc(-c2nnc(SCC(=O)Nc3ccccc3C(F)(F)F)o2)c(C)n1-c1ccccc1, which IC50 is on record?
**A.** > 35.9 µM (inactive)

**Q.** For O=S(=O)(/C(=C\c1ccc(C(F)(F)F)cc1)c1nc2ccccc2[nH]1)c1ccccc1, which IC50 is on record?
**A.** > 12 µM (inactive)

**Q.** How did the IC50 turn out when Cc1cccc(C)c1NS(=O)(=O)c1ccc(-c2cnc(C3CC3)o2)cc1 was run?
**A.** inactive

**Q.** Which IC50 does the source give for C=C1C(=O)[C@]23C[C@H]1CCC2[C@@]1(C)C(C[C@@H]3O)[C@](C)(C(=O)OC)CC[C@@H]1O (stereo partly specified) here?
**A.** 8.33 µM

**Q.** With c1cc2[nH]snc2c2nc(C3CC3)nc12 as the compound, how does the IC50 read?
**A.** 1.62 µM

**Q.** How did the IC50 turn out when CCOc1cc(C(N)=O)cc(Br)c1OC was run?
**A.** 5.79 µM
